Values quoted from earlier work, collected in patent US7232821B2, “(2-((2-alkoxy)-phenyl) -cyclopent-1enyl) aromatic carbo and heterocyclic acid and derivatives” (Glaxo Group Limited, priority 2002, dated 2007).

What was measured:
[1] = tested on: rat model of chronic constriction injury
[2] = tested on: rodent model of post-operative pain

For `Cc1cc(Cl)ccc1S(=O)(=O)NC[C@H]1C2CCC(CC2)[C@@H]1/C=C\CCCC(=O)O` [ONO-8711], the hyperalgesia and allodynia [1] is given as “reduces hyperalgesia and allodynia” and the mechanical hyperalgesia [2] is given as “inhibits mechanical hyperalgesia”.
